Like-named read-outs stand apart in the source and are kept apart here.
Tests used:
[1] = system: Saccharomyces cerevisiae; experiment: Yeast-alcohol batch fermentation with uncoupler dosing; format: cell-based; conditions: 2.0 ppm CCCP
Method: Saccharomyces cerevisiae (Institute of Marine Sciences, U. Of Miami Culture Collection) was used in the following fermentation medium: 1% glucose, 13.4 g/1 yeast nitrogen Base (BBL, Cockeysville, MD), 0.5 g/1 sodium thioglycollate. pH was 5.68, temperature 33°C, agitation 8.5/10 on Fisher Versamix stirplate. CCCP was dosed at 2.0 mg/l.
Reaction vessel was a 3.0 liter working volume fermenter jar - New Brunswick Scientific. Temperature control was held by recirculation of a 33°C hot water bath through the reactor heating coils by a Little Giant Model 1 submergible pump (Little Giant Pump Co., Oklahoma City, OK).
Glucose and biomass determinations were made by the previously mentioned techniques. Ethanol determinations was by the alcohol dehydrogenase method 331-UV (Sigma Chemical Co., St. Louis, MO). Reactors were run for approximately 150 hours with sampling times varying throughout the experiment.

[2] = system: E. coli K12 ATCC 25404; experiment: Batch culture biomass yield and glucose removal; format: cell-based, Escherichia coli
Method: Biomass determinations were by Millipore Filtration using Millipore type H.A. 0.45 µ filters. Samples were centrifuged @ 15,000 x for 10 min., supernatant was filtered through a dried and preweighed filter. The centrifuged pellet was then vortexed in 2 mL of D.I. water and filtered also. Samples were then dried overnight @ 105°C and re-weighed. Biomass was the weight of the dried filter less the tared filter weight.
Glucose determinations were carried out on the centrifuged reactor sample supernatants using glucose enzymatic assay (hexokinase and glucose 6-phosphate dehydrogenase) UV-15 Sigma Chemical Co., St. Louis, MO. (Assay set-up pamphlet accompanies kit). Spectrophotometric measurements were run on a Zeiss PM-6 Spektralphotometer, Carl Zeiss, 7082 Oberkochen, West Germany.
Escherichia coli K12 ATCC 25404 was grown to 175 K.U. (after 48 hours) on 10 g/1 dextrose, 75 mL/1 25x VBE, 5 mL/1 trace mixture. Ten mL of this culture was then used as seed for 300 mL of media of the same composition and dosed with varying concentrations of CCCP, myristic acid and salicylanilide.
Initial and 72 hour measurements for glucose and biomass were run by the previously described methods.

[3] = system: Klebsiella pneumoniae; experiment: Standard bacterial counts on the CO2 blowoff vials, first series; format: cell-based
Method: (§1) The first series of experiments involved the measurement of the amount of C02 evolved from aerobically growing cultures of the representative organism Klebsiella in the presence and absence of uncoupling agents. The known uncouplers 2, 4 dinitrophenol (DNP) and carbonyl cyanide m-chlorophenyl hydrazone (CCCP) were tested along with bis (tricholoromethyl) sulfone (TCMS) and beta-bromo-beta-nitrostyrene (BNS). It can be seen from the data that CCCP caused large increases in C02 evolution over the untreated controls at all concentrations used, with the largest increase (29%) at 5 µg/mL (24.4 uM). […] Bacterial counts also reflected the lack of uncoupling activity. […] Largest increase in C02 blowoff came at 50 ppm (32%). BNS gave a mixed pattern as opposed to those of DNP and CCCP. […] Even at 10 µg/mL, the bacterial count was reduced ~ 50% while still giving greater C02 blowoff than control cultures.
The procedure utilized to perform the first series of experiments was as follows: • Sealed vials containing 8 mL of minimal salts medium (Composition: K2HPO4-39, KH2PO4-lg, MgSO4-0.2g, (NN4)2SO4^-1g, D-glucose-5g (optional) in 1 liter. Autoclave and adjust pH to 6.8) lacking any carbon source were each injected with 1 mL of a suspension of Klebsiella pneumoniae. […] Vials were read for C02 blowoff at the times indicated on the appropriate Tables. […]

[4] = system: Klebsiella; experiment: microbe, parasite or virus in culture; format: cell-based; conditions: Klebsiella, read-out: increase in C02 blowoff
Method: These patterns were the results of Klebsiella cultures having been grown on glucose (^14C-label). In nature, and in waste treatment facilities, many organic carbon compounds, both simple and complex, would be available for degradation. The known uncouplers and BNS were tested for their ability to increase C02 evolution from cultures exposed to the common substrates lactate, glycine, glycerol, and a denatured protein mixture. […] This was expected in the case of glycine but it was thought that a more complex protein might be degraded and portions used for some energyproduction. It was hoped that these compounds might be a more representative group (more abundant in waste treatment) than simple sugars for determining the extent of activity of BNS. […] Lactate, a common intermediate in microbial metabolism, and a compound which would normally be used as an oxidizable substrate for running the cytochrome chain, gave a more representative response. BNS treated cultures gave increased C02 blowoff (an increase as high as 130% at 5 µg/mL) as did both known uncouplers. […] When glycerol was used as the labeled substrate, BNS treated cultures gave increased C02 at concentrations up to 5 µg/mL.
The procedure used for determining the CO2 evolution was similar to the procedure described previously. Cells having been grown overnight in MSM and glucose were centrifuged and resuspended in MSM + glucose (cold) and used as inoculum. No other cold carbon source (unlabeled) was added. ^14C-labeled substrates (lactate, glycerol, etc.) obtained from New England Nuclear were used and supplied the radiolabeled carbon for the detection of ^14CO2. BNS was utilized in concentrations of 0.5 - 10 µg/mL. Fixed concentrations of 5 µg/mL CCCP and DNP were included for comparative purposes. The following data were obtained in these experiments.

[5] = system: Klebsiella pneumoniae; experiment: microbe, parasite or virus in culture; format: cell-based
Method: as §1
The procedure utilized to perform the first series of experiments was as follows: • Sealed vials containing 8 mL of minimal salts medium (Composition: K2HPO4-39, KH2PO4-lg, MgSO4-0.2g, (NN4)2SO4^-1g, D-glucose-5g (optional) in 1 liter. Autoclave and adjust pH to 6.8) lacking any carbon source were each injected with 1 mL of a suspension of Klebsiella pneumoniae. (Klebsiella was grown overnight, shaken at 37°C, in minimal salts medium containing glucose to a heavy cell suspension. The cells were centrifuged at 10,000 g and resuspended to a turbidity of 150 Klett units [Klett-Summerson photometer, #42 blue filter) in minimal salts medium [MSM], no glucose. These cells were again centrifuged, and resuspended in MSM at 1/10 the volume used previously. This 10X cell suspension was used as the standard inoculum for the vials.) The vials were- simultaneously injected with 1 mL of a 1 µ Ci/mL solution of ^14C-U-D glucose and the appropriate concentration of material to be tested. The compounds tested were fed at concentrations of […]. Controls received no test material and all vials were shaken during the course of the experiments at 37°C. Vials were read for C02 blowoff at the times indicated on the appropriate Tables. Standard bacterial counts were done on each vial after the end of each experimental series. [formula] [formula] [formula] [formula]

[6] = Escherichia coli, ATCC25404, 72 h, read-out: drop in biomass yield

## N#CC(C#N)=NNc1cccc(Cl)c1 [CCCP, carbonyl cyanide m-chlorophenyl hydrazone]
[1]
  g ETOH formed hr. max.: 0.45
  g ETOH formed hr. max., change vs Control: +41.6%
  g glucose consumed/hr. max.: 0.39
  g glucose consumed/hr. max., change vs Control: +88%
[1]; f = final
  g cells mole glucosef: 6.59
  g cells mole glucosef, change vs Control: -44.1%
  mole ETOH/Mole Glucosef g cells: 4.02
  mole ETOH/Mole Glucosef g cells, change vs Control: +105.1%
  moles ETOH/ mole glucosef*: 1.39
  moles ETOH/ mole glucosef*, change vs Control: +9.4%
[2]; 0.4 ppm, batch, 72 hour
  glucose removal efficiency: 100%
[2]; 1.0 ppm, batch, 72 hour
  carbon (glucose) removal efficiency: 98.2%
[2]; 1.9 ppm, batch, 72 hour
  drop of glucose removal efficiency from control: 4.8%
  glucose removal efficiency: 95.2%
[2]; [6]
  inhibition of growth at 0.4 ppm: 14.6%
  inhibition of growth at 1 ppm: 28%
  inhibition of growth at 1.9 ppm: 42.7%
[3]; 50 µg/mL
  bacterial counts: the same as the control levels
[4]; 14C-lactate as labeled substrate, 5 µg/mL
  activation at 5 µg/mL: 151%
[5]; Klebsiella pneumoniae, 5 µg/mL (24.4 uM), 14C-glucose, read-out: largest increase in C02 evolution over the untreated controls
  activation at 5 µg/mL: 29%

## O=[N+]([O-])c1ccc(O)c([N+](=O)[O-])c1 [DNP, 2, 4 dinitrophenol, reference compound]
[3]; even at 50 ppm
  toxic effects (bacterial counts): no toxic effects
[4]
  activation at 5 µg/mL: 83%
[5]; Klebsiella pneumoniae, read-out: Largest increase in C02 blowoff
  activation at 50 ppm: 32%
[5]; Klebsiella pneumoniae, read-out: concentrations causing significant increases in C02 blowoff
  minimal effective concentration: > 5 µg/mL

## CCCCCCCCCCCCCC(=O)O [Myristic acid, myristic acid]
[2]; Escherichia coli, ATCC25404, 25 ppm, batch, 72 hour, read-out: reduction in biomass yield
  inhibition of growth at 25 ppm: 19.5%
[2]; up to 25 ppm, batch, 72 hour
  inhibitory effects on glucose removal: no inhibitory effects

## O=C(Nc1ccccc1)c1ccccc1O [Salicylanilide, salicylanilide]
[2]; 50.5 ppm, batch, 72 hour
  glucose removal efficiency: 99.7%
[2]; Escherichia coli, ATCC25404, 50.5 ppm, batch, 72 hour, read-out: drop in biomass yield
  inhibition of growth at 50.5 ppm: ≤ 40.2%

## O=S(=O)(C(Cl)(Cl)Cl)C(Cl)(Cl)Cl [TCMS, bis (tricholoromethyl) sulfone]
[5]; all concentrations, 14C-glucose
  uncoupling property (C02 evolution): no uncoupling property

— patent EP0162545A2, “Enhanced bioconversion processes” (BETZ EUROPE, INC., priority 1984, dated 1985)
